Counter-ions that a name gives are not always drawn. Like-named read-outs stand apart in the source and are kept apart here.

For assay [1], the system named is Arabidopsis thaliana. The experiment in a line: Herbicidal activity and tryptophan reversal on Arabidopsis grown on agar medium. It counts as in vivo. The arrangement: key: 0 - no effect; 9 - total kill; C - chlorotic seedlings 4-6 days after treatment. On the procedure: In this experiment, TS inhibitors were tested on Arabidopsis thaliana grown Murashige minimal organics medium, (obtained from Life Technologies, Grand Island, N.Y.), containing 0.7% agar. Compounds were tested at different concentrations to assess their herbicidal activity.

In assay [2] the target is T1, Salmonella typhimurium tryptophan synthase holoenzyme (α2β2), TSα reaction (Salmonella typhimurium, UniProt P00929).
T1 construct: made in house; host or cells: E. coli strain CB149pSTB7
T1 sequence (P00929 whole entry): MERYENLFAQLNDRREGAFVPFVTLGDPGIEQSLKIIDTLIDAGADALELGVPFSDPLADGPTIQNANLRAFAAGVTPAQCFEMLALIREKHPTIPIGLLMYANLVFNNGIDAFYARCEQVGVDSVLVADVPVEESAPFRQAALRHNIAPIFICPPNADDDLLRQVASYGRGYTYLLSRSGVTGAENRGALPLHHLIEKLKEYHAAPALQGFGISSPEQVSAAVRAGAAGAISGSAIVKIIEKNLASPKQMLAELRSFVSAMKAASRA
T1 sequence (P0A2K1 2-397, further chain): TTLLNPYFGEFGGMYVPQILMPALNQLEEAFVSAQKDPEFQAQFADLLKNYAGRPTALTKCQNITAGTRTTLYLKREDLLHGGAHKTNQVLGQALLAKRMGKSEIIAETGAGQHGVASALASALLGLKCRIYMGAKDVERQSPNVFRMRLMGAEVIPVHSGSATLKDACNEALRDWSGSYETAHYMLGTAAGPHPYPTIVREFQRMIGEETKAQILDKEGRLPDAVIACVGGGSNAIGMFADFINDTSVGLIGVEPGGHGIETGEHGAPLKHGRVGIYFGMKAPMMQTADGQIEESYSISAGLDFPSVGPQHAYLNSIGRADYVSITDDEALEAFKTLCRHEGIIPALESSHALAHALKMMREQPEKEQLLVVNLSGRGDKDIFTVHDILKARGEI
Put plainly: Inhibition of tryptophan synthase by the TSα reaction, microtiter kinetic coupled enzyme assay. Conditions: for IC50: Salmonella holoenzyme, 30 min at 37° C., 100 μM IGP. It counts as biochemical. An excerpt:
Inhibitors of TS were identified by their ability to inhibit the production of glyceraldehyde-3-P by the TSα reaction of the Salmonella typhimurium holoenzyme (α2β2) in the presence of a limiting amount of indole-3-glycerolphosphate and an excess of serine
The assay was developed as a new microtiter plate kinetic enzyme assay based on the combined methods of Creighton (EurJBch 13:1-10, 1970) and Creighton and Yanofsky (JBC 241:980, 1966) with modifications. The rate of glyceraldehyde production was measured as the linear […] (spectrophotometric absorbance at 340 nm) in the presence of glyceraldehyde-3-phosphate dehydrogenase in a coupled enzyme assay.
The assay solution contained a test inhibitor compound, 50 mM Tris-Cl (pH 7.8), 6 mM sodium arsenate, 5 μg/ml pyridoxal phosphate, 0.5 mM DTT, 0.18M NaCl, 60 mM serine, 1.6 mM NAD+, 8 e.u./ml yeast glyceraldehyde-3-phosphate dehydrogenase (Sigma, Catalog #G2647; Kirschner et al., Eur J Bch, 1975, 60:513 and approximately 1.5 e.u. Salmonella TS. 100 μM IGP was added to start the reaction, which was run at 37° C. and using 300 μl per assay in a microtiter plate.
The substrate IGP was used at 1.5 to 2 times its Km concentration to enhance the likelihood of identifying weak inhibitors, binding at the substrate binding site. This approach to identifying enzyme inhibitors was novel, since an excess of all substrates, (at least 5-times the Km value of each), is conventionally used in the measurement of enzyme activity.
Potential inhibitors were evaluated by adding 100 μM inhibitor (equimolar to substrate IGP):or less, in a 1:1 dilution series down from 100 μM, until the inhibition measured was less than 15%. Reaction rates at Vmax were compared in the presence and absence of inhibitors.
In addition, some weaker inhibitors were identified following preincubation of the inhibitor with the TS assay mix for 24 hrs prior to the addition of IGP. The identifying weaker inhibitors is to aid in a quantitative structure activity relationship (QSAR) evaluation, or to identify new herbicidal inhibitor leads. The previously known inhibitor IPP was used as a standard in all tests, where the I50 for IPP was 1-2 uM.

The target of assay [3] is T2, Arabidopsis TS enzyme (Arabidopsis thaliana, UniProt Q42529).
T2 construct: GST (N, cleaved yes); made in house; host or cells: E. coli DH5α (pGEX-2T constructs)
T2 sequence (Q42529 with tags, fused parts or gaps): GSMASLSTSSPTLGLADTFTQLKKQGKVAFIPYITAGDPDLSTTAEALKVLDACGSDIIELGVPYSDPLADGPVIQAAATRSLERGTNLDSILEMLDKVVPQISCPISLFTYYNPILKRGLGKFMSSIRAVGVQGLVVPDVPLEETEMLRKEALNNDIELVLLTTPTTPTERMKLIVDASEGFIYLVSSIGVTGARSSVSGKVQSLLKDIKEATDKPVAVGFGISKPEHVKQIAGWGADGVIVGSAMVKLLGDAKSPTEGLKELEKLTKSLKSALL
T2 sequence (P14671 with tags, fused parts or gaps partner): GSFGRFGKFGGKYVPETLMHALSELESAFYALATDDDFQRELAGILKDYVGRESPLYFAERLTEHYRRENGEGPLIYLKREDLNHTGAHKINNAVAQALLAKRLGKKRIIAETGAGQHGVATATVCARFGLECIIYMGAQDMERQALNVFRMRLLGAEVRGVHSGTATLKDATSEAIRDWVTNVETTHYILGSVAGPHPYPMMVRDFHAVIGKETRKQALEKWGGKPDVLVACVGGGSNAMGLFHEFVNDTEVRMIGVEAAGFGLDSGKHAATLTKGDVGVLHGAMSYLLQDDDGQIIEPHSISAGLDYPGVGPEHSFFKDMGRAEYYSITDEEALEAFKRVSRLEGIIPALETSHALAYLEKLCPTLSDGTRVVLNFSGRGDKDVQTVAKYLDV
The experiment in a line: TSα assay with recombinant plant TSα and TSβ expressed in E. coli. It counts as biochemical. To be noted: inhibitor 82 uM; pAC 758 (1.5 ug) + pAC 755 (3 ug). How it is done:
The plant TS proteins were expressed as fusion proteins with glutathione transferase (GST) to facilitate purification. After purification, the GST protein was cleaved off with thrombin as described above before the plant TS assays were performed. After thrombin cleavage, both TSα and TSβ-subunit proteins retained a Gly-Ser residue on the N-terminal of the protein in addition to the TS sequence. […]
The TSα enzyme assay was conducted as described in Example 3 for Salmonella TSα.
Specifically, phenylthiophosphonic acid compounds were used. The TSα assay conditions were as described for Salmonella TSα in Example 3 except that recombinant plant proteins were used instead of the Salmonella enzyme.

[4] abbreviates: TSα reaction, read-out: TS inhibition I50.

Take `NC1CCCCC1.NC1CCCCC1.O=P(O)(O)CCCC[S+]([O-])c1ccccc1O` (stereo not drawn) [Phosphonic acid, {4-[(o-hydroxyphenyl)sulfinyl]butyl}-, with cyclohexylamine (1:2)]: the herbicidal rating in assay [1] (herbicide 7.8 mM + 100 μM Trp) worked out at 0; in assay [1] (herbicide 7.8 mM, no Trp), 5; in assay [1] (herbicide 16 mM + 100 μM Trp), 0; in assay [1] (herbicide 16 mM, no Trp), 6; in assay [1] (herbicide 31 mM + 100 μM Trp), 3; in assay [1] (herbicide 31 mM, no Trp) it was 6. In addition, the herbicidal rating in assay [1] (herbicide 63 mM + 100 μM Trp) worked out at 5; in assay [1] (herbicide 63 mM, no Trp), 6; in assay [1] (herbicide 125 mM + 100 μM Trp) it was 5; in assay [1] (herbicide 125 mM, no Trp) it was 6; in assay [1] (herbicide 250 mM + 100 μM Trp), 5; in assay [1] (herbicide 250 mM, no Trp) it was 7Y. In addition, the herbicidal rating in assay [1] (herbicide 500 mM + 100 μM Trp) is listed as 5; in assay [1] (herbicide 500 mM, no Trp), 7Y; in assay [1] (herbicide 1000 mM + 100 μM Trp), 5; in assay [1] (herbicide 1000 mM, no Trp), 8.

`CCOP(=O)(CCCCSc1ccccc1O)OCC` [Phosphonic acid, {4-[(o-hydroxyphenyl)thio]butyl}-, diethyl ester]: the herbicidal injury rating in assay [1] (herbicide 7.8 μM) was determined as 0; in assay [1] (herbicide 16 μM), 1; in assay [1] (herbicide 31 μM) it was 3; in assay [1] (herbicide 63 μM) it was 5; in assay [1] (herbicide 125 μM), 6; in assay [1] (herbicide 250 μM) it was 7. Besides, the values for the herbicidal injury rating in assay [1] (herbicide 500 μM) and in assay [1] (herbicide 1000 μM) were 8 and 9, respectively.

In the case of `Nc1ccccc1SCC=CCP(=O)(O)O` [Phosphonic acid, {4-[(o-aminophenyl)thio]-2-butenyl}-], in assay [2] (setting [4]), the IC50 is 250 nM. The “Enzyme activity, % of control” value in assay [2] (inhibitor 100 nM) is recorded as 70.7 % of control; in assay [2] (inhibitor 300 nM) it was 43.4 % of control; in assay [2] (inhibitor 1000 nM), 25.3 % of control; in assay [2] (inhibitor 3000 nM), 13.8 % of control; in assay [2] (inhibitor 10000 nM) it was 4.5 % of control.

On to `CCOP(=O)(CCCCSc1cc(Cl)ccc1N)OCC` [Phosphonic acid, {4-[(2-amino-5-chlorophenyl)thio]butyl}-, diethyl ester], for which the herbicidal injury rating in assay [1] (herbicide 16 μM) is 0; in assay [1] (herbicide 31 μM), 1; in assay [1] (herbicide 63 μM) it was 1; in assay [1] (herbicide 125 μM), 3; in assay [1] (herbicide 250 μM) it was 5; in assay [1] (herbicide 500 μM) it was 6. The herbicidal injury rating in assay [1] (herbicide 1000 μM) is recorded as 7.

Consider `Nc1cccnc1SCCCCP(=O)(O)O` [Phosphonic acid, {4-[3-amino-2-phridyl)thio]butyl}-], for which, in assay [2] (setting [4]), the IC50 was 5000 nM.

Turning to `Nc1ccccc1SCCCCP(=O)(O)O` [Phosphonic acid, {4-[(o-aminophenyl)thio]butyl}-, dilithium salt], in assay [2] (setting [4]), the IC50 came to 400 nM.

In the case of `CCOP(=O)(CCCCSc1cc(Br)ccc1N)OCC` [Phosphonic acid, {4-[2-amino-5-bromophenyl)thio]butyl}-, diethyl ester], the herbicidal injury rating in assay [1] (herbicide 7.8 μM) was 1; in assay [1] (herbicide 16 μM), 1; in assay [1] (herbicide 31 μM) it was 1; in assay [1] (herbicide 63 μM), 1; in assay [1] (herbicide 125 μM), 4; in assay [1] (herbicide 250 μM), 5. The figures for the herbicidal injury rating in assay [1] (herbicide 500 μM) and in assay [1] (herbicide 1000 μM) were 6 and 8, respectively.

In the case of `O=P(O)(O)CC=CCSc1ccccc1O` [Phosphonic acid, {4-[(o-hydroxyphenyl)thio]-2-butenyl}-], in assay [3], the “TSα activity, % of control” value is given as 14.7 % of control and the “TSα activity, relative Vmax” value was 0.909 mOD/min.

For `Nc1cc(C(F)(F)F)ccc1SCCCCP(=O)(O)O` [Phosphonic acid, {4-[(2-amino-alpha,alpha,alpha-trifluoro-p-tolyl)thio]butyl}-], the IC50 in assay [2] (setting [4]) was found to be 7000 nM.

As for `Nc1ccc(Cl)cc1SCCCCP(=O)(O)O` [Phosphonic acid, {4-[(2-amino-5-chlorophenyl)thio]butyl}-], the herbicidal injury rating in assay [1] (herbicide 7.8 μM) was 0; in assay [1] (herbicide 16 μM) it was 1; in assay [1] (herbicide 31 μM), 1; in assay [1] (herbicide 63 μM), 1; in assay [1] (herbicide 125 μM), 3; in assay [1] (herbicide 250 μM), 3. In addition, the herbicidal injury rating in assay [1] (herbicide 500 μM) and in assay [1] (herbicide 1000 μM) was 3 in each case.

Regarding `Nc1ccc(Br)cc1SCCCCP(=O)(O)O` [Phosphonic acid, {4-[2-amino-5-bromophenyl)thio]butyl}-], the IC50 in assay [2] (TS inhibition I50, TSα reaction) came out at 70 nM. For the same molecule, the “Enzyme activity, % of control” value in assay [2] (inhibitor 30 nM) is recorded as 70.5 % of control; in assay [2] (inhibitor 100 nM), 38.5 % of control; in assay [2] (inhibitor 300 nM) it was 24.7 % of control; in assay [2] (inhibitor 1000 nM), 8.7 % of control. Also, the herbicidal injury rating is listed as 1 in assay [1] (herbicide 7.8 μM); 1 in assay [1] (herbicide 16 μM); 2 in assay [1] (herbicide 31 μM); 3 in assay [1] (herbicide 63 μM); 3 in assay [1] (herbicide 125 μM); 4 in assay [1] (herbicide 250 μM). In addition, the herbicidal injury rating in assay [1] (herbicide 500 μM) and in assay [1] (herbicide 1000 μM) was 4 throughout.

For the molecule `CP(=O)(O)CCCCSc1ccccc1N` [Phosphinic acid, {4-[(o-aminophenyl)thio]butyl}methyl-], the IC50 in assay [2] (setting [4]) stood at 100000 nM.

These data come from patent US20050050594A1, “Tryptophan synthase as a site of herbicide action” (priority 1999, published 2005).
